Earlier results, collected in publication PMC5040077 (The Korean Journal of Parasitology, 2016).

Tests used:
[1] = test system: Leishmania chagasi promastigotes
[2] = test system: Trypanosoma cruzi trypomastigotes
SF-295 = settings: cancer cell line SF-295
HCT-8 = settings: cancer cell line HCT-8
HL-60 = settings: cancer cell line HL-60
MDA-MB-435 = settings: cancer cell line MDA-MB-435

SMILES | biological activity against Leishmania chagasi promastigotes [1] | activity against Trypanosoma cruzi trypomastigotes [2] | cytotoxicity against SF-295 (SF-295) | cytotoxicity against HCT-8 (HCT-8) | cytotoxicity against HL-60 (HL-60) | cytotoxicity against MDA-MB-435 (MDA-MB-435)
C[C@]12CC[C@H]3[C@@H](CC[C@]4(O)C[C@@H](O)CC[C@]34C=O)[C@@]1(O)CC[C@@H]2c1ccc(=O)oc1 [hellebrigenin, reference compound] | biological activity | active |  |  |  | 
C[C@]12CC[C@H](O)C[C@@]1(O)CC[C@@H]1[C@@H]2CC[C@]2(C)[C@@H](c3ccc(=O)oc3)CC[C@]12O [compound 1, telocinobufagin] | biological activity | only hellebrigenin was active | low cytotoxicity | low cytotoxicity | low cytotoxicity | low cytotoxicity
